{"source": "paper PMC7913925", "about": "“Design and Evaluation of a Polypeptide That Mimics the Integrin Binding Site for EDA Fibronectin to Block Profibrotic Cell Activity” (International Journal of Molecular Sciences, 2021)", "molecules": {"B1": {"name": "FN-EDA, a peptide sharing amino acid sequence with the C-C′ loop of EDA-FN (peptide)", "peptide": "TYSSPEDGIHEL", "notes": "12-residue stretch of the C-C′ loop of extra domain A (EDA) of fibronectin; also called fibronectin EDA-peptide; EDA-FN C-C′ loop peptide; source: synthetic peptide (ChinaPeptides)"}}, "key": {"[1]": {"tested_on": "fixed ECM of fibroblasts or differentiated myofibroblasts", "assay": "AF38Pep-Cy5 labelling of ECM vs FN1 immunostaining", "type": "cell-based", "procedure": "A solution containing 1:1 molar ratio of AF38Pep to non-sulphated Cy5-NHS-ester (APExBIO, Houston, TX, USA) was incubated overnight in RT, shielded from light and under constant mixing. The following day, the solution was passed through a PD-10 Sephadex G-25 M gel filtration column (GE Healthcare, Chicago, IL, USA) into PBS. The first 3 fractions (highest molecular weight) were collected, dialyzed (membrane MWCO 1 kDa) against ddH2O overnight, and concentrated by vacuum centrifuge at 3000 rpm at 60 °C for 3 h. Fibroblasts were grown to 70% confluence in 12-well tissue culture plates, before growth arrest in serum-free DMEM for 48 h. […] Any AF38Pep-Cy5 that remained bound to EDA-FN was assessed using an IVIS imaging system (Caliper Life Sciences, PerkinElmer, Hopkinton, MA, USA) set to detect Cy5.5 epifluorescence after excitation at 640 nm. Epifluorescence was quantified using Living Image v4.2 analysis software (Caliper Life Sciences).\nCells were grown to 40% confluence in 8-well glass chamber slides (Nunc, Thermo Fisher Scientific), prior to growth arrest and treatment. […] Cells were then mounted in DAPI Fluoromount-G (Thermo Fisher Scientific) and imaged using a Zeiss Axio Imager Z1 UV fluorescence microscope (Zeiss, Jena, Germany) and a Leica TCS SP5 laser scanning confocal microscope (Leica Biosystems, Baden-Württemberg, Germany)."}, "[2]": {"tested_on": "EDA-FN ECM of TGF-β1-treated fibroblasts", "assay": "Epifluorescence assay of AF38Pep-Cy5 binding to fibrotic ECM (IVIS)", "type": "cell-based", "conditions": "AF38Pep-Cy5 10 µg/mL", "procedure": "(§1) A solution containing 1:1 molar ratio of AF38Pep to non-sulphated Cy5-NHS-ester (APExBIO, Houston, TX, USA) was incubated overnight in RT, shielded from light and under constant mixing. The following day, the solution was passed through a PD-10 Sephadex G-25 M gel filtration column (GE Healthcare, Chicago, IL, USA) into PBS. The first 3 fractions (highest molecular weight) were collected, dialyzed (membrane MWCO 1 kDa) against ddH2O overnight, and concentrated by vacuum centrifuge at 3000 rpm at 60 °C for 3 h. Fibroblasts were grown to 70% confluence in 12-well tissue culture plates, before growth arrest in serum-free DMEM for 48 h. Cells were then treated with 10 ng/mL TGF-β1 for 0, 24, 48 and 72 h. The conjugated AF38Pep-Cy5 was added to the plate wells at 10 µg/mL and was incubated for 2 h. The culture medium was removed, and cells were washed three times with PBS before replenishment with fresh serum-free DMEM. Any AF38Pep-Cy5 that remained bound to EDA-FN was assessed using an IVIS imaging system (Caliper Life Sciences, PerkinElmer, Hopkinton, MA, USA) set to detect Cy5.5 epifluorescence after excitation at 640 nm. Epifluorescence was quantified using Living Image v4.2 analysis software (Caliper Life Sciences)."}, "[3]": {"tested_on": "EDA-FN in fixed fibroblast or myofibroblast ECM", "assay": "Competitive labelling of fixed matrices, AF38Pep-Cy5 and IST-9", "type": "cell-based", "procedure": "as §1\nCells were grown to 40% confluence in 8-well glass chamber slides (Nunc, Thermo Fisher Scientific), prior to growth arrest and treatment. Cells were washed with PBS before fixation in 4% paraformaldehyde for 10 min at room temperature. Next, cells were permeabilized with 0.1% (v/v) Triton X-100 in PBS for 10 min at room temperature. For visualization of ECM, cells were fixed with 100% ice-cold methanol for 8 min at −20 °C. Slides were washed with PBS and blocked with 1% goat serum (TBD Science, Tianjin, China) for 30 min before washing with 0.1% (w/v) BSA in PBS. […] Cells were then mounted in DAPI Fluoromount-G (Thermo Fisher Scientific) and imaged using a Zeiss Axio Imager Z1 UV fluorescence microscope (Zeiss, Jena, Germany) and a Leica TCS SP5 laser scanning confocal microscope (Leica Biosystems, Baden-Württemberg, Germany)."}, "[4]": {"target": "integrin α4 protein (ITGA4) (not stated (endogenous in fibroblasts; mouse NIH/3T3 and human HFL1 cells were cultured)) (UniProt Q00651)", "sequence (Q00651 41-1039)": "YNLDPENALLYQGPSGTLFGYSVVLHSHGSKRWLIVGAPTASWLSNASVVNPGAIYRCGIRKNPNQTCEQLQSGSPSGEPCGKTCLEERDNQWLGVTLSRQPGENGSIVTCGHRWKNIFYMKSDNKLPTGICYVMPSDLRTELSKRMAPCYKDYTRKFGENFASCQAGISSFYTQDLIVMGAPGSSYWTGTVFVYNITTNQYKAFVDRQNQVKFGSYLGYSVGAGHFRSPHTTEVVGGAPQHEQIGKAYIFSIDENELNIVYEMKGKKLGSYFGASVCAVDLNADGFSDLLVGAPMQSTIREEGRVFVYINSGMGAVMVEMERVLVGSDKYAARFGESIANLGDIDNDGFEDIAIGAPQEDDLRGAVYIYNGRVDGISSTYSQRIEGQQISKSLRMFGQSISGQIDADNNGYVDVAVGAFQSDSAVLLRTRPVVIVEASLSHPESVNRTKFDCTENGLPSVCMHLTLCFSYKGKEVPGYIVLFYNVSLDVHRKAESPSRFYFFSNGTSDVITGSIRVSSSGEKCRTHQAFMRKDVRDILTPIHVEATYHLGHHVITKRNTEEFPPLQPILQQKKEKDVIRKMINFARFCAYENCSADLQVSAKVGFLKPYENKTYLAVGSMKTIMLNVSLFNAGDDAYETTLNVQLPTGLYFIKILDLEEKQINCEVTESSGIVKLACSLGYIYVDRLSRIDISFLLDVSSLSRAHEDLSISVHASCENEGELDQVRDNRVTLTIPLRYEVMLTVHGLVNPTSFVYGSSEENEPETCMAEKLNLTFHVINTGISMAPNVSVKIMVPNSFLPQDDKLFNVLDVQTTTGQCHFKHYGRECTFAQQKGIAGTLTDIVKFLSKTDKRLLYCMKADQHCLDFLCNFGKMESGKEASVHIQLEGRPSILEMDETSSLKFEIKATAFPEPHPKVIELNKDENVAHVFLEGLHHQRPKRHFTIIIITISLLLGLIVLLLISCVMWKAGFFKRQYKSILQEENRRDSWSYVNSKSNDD", "conditions": "scale: % of that observed in cells that only received TGF-β1 treatment"}, "[5]": {"target": "T1, antifibrotic 38-amino-acid polypeptide (AF38Pep) (disulfide bridge between the two cysteines)", "T1 construct": "two stretches derived from integrins β1 and α4, linked by a serine; Design contains the ISTTPAK motif of integrin β1/β7 and the KNENKI motif of integrin α4; source: synthetic peptide (ChinaPeptides)", "T1 peptide": "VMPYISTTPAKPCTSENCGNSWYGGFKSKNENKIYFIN", "assay": "ITC; 15 µM AF38Pep in the chamber well, 300 µM small peptide in the injection needle; 25 °C; HEPES buffered saline (140 mM NaCl, 1.5 mM Na2HPO4, 50 mM HEPES; pH 7); MicroCal iTC200; one set of sites model with number of binding sites assumed to be 1", "conditions": "both partners purified"}, "[6]": {"target": "T2, FN-EDA, a peptide sharing amino acid sequence with the C-C′ loop of EDA-FN", "T2 peptide": "TYSSPEDGIHEL", "assay": "ITC"}, "[7]": {"target": "T2, FN-EDA, a peptide sharing amino acid …", "assay": "ITC"}}, "note": "Bridges are numbered along the chain shown (N, C = ends). Where no end group is shown, it is not given here.", "data": [{"molecule": "AF38Pep-Cy5: AF38Pep conjugated to Cy5 dye (non-sulphated Cy5-NHS-ester) (VMPYISTTPAKPCTSENCGNSWYGGFKSKNENKIYFIN; disulfide 13-18 (inferred); also: Cy5 label, site not given here)", "values": [{"measurement": "AF38Pep-Cy5 colocalization with FN1 staining, myofibroblast ECM", "setting": "[1]; differentiated myofibroblasts", "value": "colocalization with anti-FN1 staining (yellow) was prominent in areas of fibronectin deposition at cell membranes"}, {"measurement": "AF38Pep-Cy5 staining of fibroblast ECM", "setting": "[1]; untreated control fibroblasts", "value": "little to no staining"}, {"measurement": "binding to fibrotic ECM with TGF-β1 treatment time", "setting": "[2]; TGF-β1 10 ng/mL for 24, 48, 72 h", "value": "increased binding of AF38Pep to the fibrotic ECM, which correlated with the increasing time of TGF-β1 treatment"}, {"measurement": "binding at 48 h vs 0 h TGF-β1 treatment", "setting": "[2]; mean ± S.E., three experiments", "value": "significant increases in binding at 48 h"}, {"measurement": "staining of fibroblast matrices, IST-9 or AF38Pep-Cy5", "setting": "[3]; fibroblasts, regardless of the order of addition", "value": "minimal, regardless of the order of addition to cells"}, {"measurement": "blocking of IST-9 staining by AF38Pep-Cy5 pretreatment", "setting": "[3]; myofibroblasts, AF38Pep-Cy5 first, then IST-9", "value": "pre-treatment blocked IST-9 staining"}, {"measurement": "labelling of EDA-FN after IST-9 pretreatment", "setting": "[3]; myofibroblasts, IST-9 first, then AF38Pep-Cy5", "value": "failed to label the elevated EDA-FN production"}]}, {"molecule": "extra domain A containing fibronectin (EDA-FN) (from UniProt P11276 33-2477) (natural protein)", "values": [{"measurement": "total collagen synthesis (hydroxyproline assay) of NIH/3T3 cells after 48 h of TGF-β1 with AF38Pep as blocker, relative to TGF-β1 alone", "setting": "[4]", "value": 60}]}, {"molecule": "B1", "values": [{"measurement": "binding result", "setting": "[5]", "value": "binds"}]}, {"molecule": "VMPYISTTPAKPCTSENCGNSWYGGFKSKNENKIYFIN (designed binder, disulfide 13-18 (inferred))", "note": "[antifibrotic 38-amino-acid polypeptide (AF38Pep)]", "values": [{"measurement": "Ka", "setting": "[6]", "value": "1.11e+06", "unit": "M⁻¹"}, {"measurement": "Kd", "setting": "[7]", "value": 858, "unit": "nM"}]}]}
